Measurements reported in US20200383959A1, “THERAPEUTIC AGENT CONTAINING PYRANODIPYRIDINE COMPOUND” (Eisai R&D Management Co., Ltd., priority 2017, published 2020).

How the values were obtained:
pain induced by STZ = experiment: Rat STZ model, von Frey test; format: in vivo
Protocol: [Test Example 3] Rat STZ Model
To confirm analgesic effect in an SFN model, an STZ model test with rats was conducted. The effect of the compound on pain induced 2 weeks after administration of STZ was examined.
Seven-week-old male SD rats (Charles River) were used for the test. To STZ aliquoted in advance into shading bottles, ice-cooled physiological saline (Otsuka Pharmaceutical Factory, Inc.) was added to reach 65 mg/mL, and the resultant was gently inversion-mixed with ice-cooling to dissolve STZ. After dissolving, the resultant was stored under ice-cooling, and used within 20 minutes from the initiation of preparation. About 20 hours after fasting, the animals were anesthetize with isoflurane, and the 65 mg/mL STZ solution was administered to each animal from the tail vein with a volume of […] over about 15 seconds by using a 1 mL syringe and a 26G injection needle. After 14 days after the administration of STZ, body weight and pain response before drug administration were measured (see description below on pain response), and animals for each of which the 50% response threshold to mechanical stimulation was 6 g or lower in von Frey test were selected, and grouped so as to provide no difference in 50% response thresholds and body weight among groups.
The compound was prepared for oral administration in DMSO:1 mol/L HCl:Cremophor EL:0.5% methylcellulose=10:5:5:80 to reach an administration volume of 10 mL/kg, and orally administered. As a negative control, only the mixed solvent without the compound (Vehicle) was used.
Evaluation of pain response was performed by using von Frey test under blind conditions, without involving any measurer for pain response in grouping and administration. Measurement of 50% response thresholds by von Frey test was performed in accordance with a method by Chaplan et al. (J Neurosci Methods 1994; 53: 55-63) using von Frey filaments. Each animal was put in a measurement cage with a floor of a metal mesh about 30 minutes before scheduled measurement time, and left to stand to habituate to the environmental change, and after the animal was confirmed to become calm measurement was initiated. Avon Frey filament (bending force: 0.4, 0.6, 1, 2, 4, 6, 8, 15 g; starting from 2 g) was pressed vertically to the center of the sole of the left hind leg for about 6 seconds until the filament bent, and avoidance response (such as putting back the leg) was observed. In accordance with a Dixon's up-down method (Annu Rev Pharmacol Toxicol 1980; 20: 441-462), 50% response thresholds were calculated. Measurement was performed at four points of time: before drug administration on Day 14, and 30 minute, 90 minutes, and 180 minutes after the administration.
The results were represented as mean±standard deviation. Dunnett's multiple comparison test was used for statistical analysis, and a significance level of 5% was used for both sides in all cases.

AMPA receptor = experiment: AMPA-induced intraneuronal calcium entry-suppressing action, primary culture of embryonic rat cerebral cortex neurons; format: cell-based; settings: AMPA-induced increase of intracellular calcium, rat cortical neurons; read-out: IC50 for AMPA inhibition
Text: [Test Example 1] AMPA-Induced Intraneuronal Calcium Entry-Suppressing Action
With regard to the AMPA receptor inhibitory action of the compounds, AMPA-induced intraneuronal calcium entry-suppressing action was examined using a primary culture system of embryonic rat cerebral cortex neurons.
<Culture conditions> Whole fetuses were removed from the uteri of Wistar rats at embryonic day 18 (Charles River Japan) anesthetized with isoflurane. Whole brains were removed from the whole fetuses, and the cerebral cortex was separated in Leibovitz's L-15 medium, or Hanks balanced salt solution containing 20% fetal bovine serum. The resulting material was treated with trypsin/DNase solution at 37° C. for 45 to 60 minutes. After the serum was added to stop the trypsin reaction, the resulting material was centrifuged at 1200 to 1500 rpm for 3 to 5 minutes. After the supernatant was removed, Neurobasal medium (containing 2% B-27 supplement and the like; hereinafter “Neurobasal medium”) was added, and the cells were uniformly dispersed by gently pipetting. The cell suspension was slightly stirred, and then filtered through a nylon mesh filter. Viable cells were counted using a hemocytometer, and diluted with Neurobasal medium to 8 to 10×10^5 cells/mL. […]
On the day of the assay, the medium was removed and replaced with a calcium measurement solution containing 5 to 10 μmol/L of Fura 2-AM (140 mmol/L sodium chloride, 5 mmol/L potassium chloride, 2 mmol/L magnesium chloride, 3 mmol/L calcium chloride, 24 mmol/L D(+)-glucose, 10 mmol/L HEPES, 1 μmol/L MK-801, pH 7.4), and the cells were treated in a CO2 incubator (5% CO2, 37° C.) for 1 to 2 hours. […] The plates were subsequently placed on the Fluorescence Drug Screening System 6000 (Hamamatsu Photonics K.K.). […] Changes in calcium concentration were measured as the changes in fluorescence intensity at excitation wavelengths of 340 nm and 380 nm (measurement wavelength: 540 nm). The rate of change of the intracellular calcium concentration was calculated in accordance with the following equation: […]

[1] = system: tremor induced by harmaline; experiment: Rat harmaline model (balance disorder / tremor score); format: in vivo; settings: for Tremor score: 20 min before harmaline 20 mg/kg i.p., score 0-3
Protocol: [Test Example 2] Rat Harmaline Model
To confirm tremor-suppressing effect, a harmaline model test with rats was conducted. In this model, balance disorder observed after administration of harmaline serves as an evaluation index (Neuroscience Letter, 590, p 84-90 (2015)).
Four-week-old male SD rats (Charles River) were subjected to the test (two treatments in total, n=5 in each treatment). Balance disorder (one of tremor symptoms) induced by harmaline was used as an evaluation index (the above literature).
The compound was prepared for oral administration in 0.4% methylcellulose/5% Cremophor/5% 1 N hydrochloric acid/10% dimethylsulfoxide solution to reach an administration volume of 5 mL/kg, and orally administered. As a negative control, only the mixed solvent without the compound (Vehicle) was used. Harmaline (Sigma-Aldrich Co. LLC) was diluted with physiological saline (Otsuka Pharmaceutical Co., Ltd.) to prepare 4 mg/mL harmaline solution. Twenty minutes after administration of the compound, the 4 mg/mL harmaline solution was intraperitoneally administered (dose: 20 mg/kg). Balance disorder was observed during 10 minutes from 5 minutes to 15 minutes after the administration of harmaline, and scored in four grades of 0, 1, 2, and 3.
The results were represented as mean±standard deviation. Dunnett's multiple comparison test was used for statistical analysis, and results with p<0.05 were determined to be of statistically significant difference.

human glioma cell line = settings: Non Patent Literature 34; cited from earlier work
[2] = system: tremor in a harmaline animal model; settings: Non Patent Literature 7; cited from earlier work
[3] = system: dystonia in the dt^sz model; settings: Non Patent Literature 21; cited from earlier work
[4] = system: hyperalgesia to mechanical stimulation in STZ models; settings: direct administration to the anterior cingulate cortex; Non Patent Literature 16; cited from earlier work
[5] = pre-administration, statement in words

## N#Cc1c(F)cccc1-c1cc2c(n(-c3cccnc3)c1=O)COc1cc(F)cnc1-2 [Compound (I), 2-fluoro-6-(3-fluoro-8-oxo-7-(pyridin-3-yl)-7,8-dihydro-6H-pyrano[3,2-b:5,4-b′]dipyridin-9-yl)benzonitrile]
Pain induced by STZ; 0.6 mg/kg oral, Day 14, 30 min
  50% response threshold: 7.3 ± 1.4 g
Pain induced by STZ; 0.6 mg/kg oral, Day 14, 90 min
  50% response threshold: 6.6 ± 1.4 g
Pain induced by STZ; 0.6 mg/kg oral, Day 14, 180 min
  50% response threshold: 5.2 ± 1.1 g
Pain induced by STZ; 0.6 mg/kg oral, Day 14, Pre (before drug administration)
  50% response threshold: 3.6 ± 0.4 g
Pain induced by STZ; 2 mg/kg oral, Day 14, 30 min
  50% response threshold: 9.5 ± 1.4 g
Pain induced by STZ; 2 mg/kg oral, Day 14, 90 min
  50% response threshold: 8.0 ± 1.3 g
Pain induced by STZ; 2 mg/kg oral, Day 14, 180 min
  50% response threshold: 6.4 ± 1.1 g
Pain induced by STZ; 2 mg/kg oral, Day 14, Pre (before drug administration)
  50% response threshold: 3.6 ± 0.3 g
Pain induced by STZ; 6 mg/kg oral, Day 14, 30 min
  50% response threshold: 12.5 ± 1.1 g
Pain induced by STZ; 6 mg/kg oral, Day 14, 90 min
  50% response threshold: 12.1 ± 1.5 g
Pain induced by STZ; 6 mg/kg oral, Day 14, 180 min
  50% response threshold: 9.6 ± 1.4 g
Pain induced by STZ; 6 mg/kg oral, Day 14, Pre (before drug administration)
  50% response threshold: 3.6 ± 0.4 g
Pain induced by STZ; [5]
  Analgesic effect: Significant analgesic effect
AMPA receptor
  IC50: 0.0194 µM
[1]; 1 mg/kg oral
  Tremor score: 1.3 ± 0.2
[1]; 2 mg/kg oral
  Tremor score: 0.6 ± 0.3
[1]; 4 mg/kg oral
  Tremor score: 0.4 ± 0.2
[1]; [5]
  Effect on tremor scores: statistically significant reduction of tremor scores

## O=C(O)Cn1c(=O)c(=O)[nH]c2cc([N+](=O)[O-])c(-n3ccnc3)cc21 [YM872]
Human glioma cell line
  Antitumor effect: antitumor effect

## NS(=O)(=O)c1cccc2c1c([N+](=O)[O-])cc1[nH]c(=O)c(=O)[nH]c12 [NBQX, 2,3-dioxo-6-nitro-1,2,3,4-tetrahydrobenzo[f]quinoxaline-7-sulfonamide]
[2]
  Effect on tremor: suppresses tremor
[3]
  Anti-dystonia action: anti-dystonia action

## Cc1ncc(-n2c3c(cc(-c4cccc(F)c4C#N)c2=O)-c2ncccc2OC3)cn1 [Compound (III), 2-fluoro-6-(7-(2-methylpyrimidin-5-yl)-8-oxo-7,8-dihydro-6H-pyrano[3,2-b:5,4-b′]dipyridin-9-yl)benzonitrile]
AMPA receptor
  IC50: 0.0443 µM

## N#Cc1c(F)cccc1-c1cc2c(n(-c3cncnc3)c1=O)COc1cccnc1-2 [Compound (II), 2-fluoro-6-(8-oxo-7-(pyrimidin-5-yl)-7,8-dihydro-6H-pyrano[3,2-b:5,4-b′]dipyridin-9-yl)benzonitrile]
AMPA receptor
  IC50: 0.029 µM

## N#Cc1cc2c(cc1[N+](=O)[O-])=NC(=O)C(=O)N=2 [CNQX, 6-cyano-7-nitroquinoxaline-2,3-dione]
[4]
  Effect on fever and hyperalgesia to mechanical stimulation: suppressed
